Measurements from patent publication US11219627B2, “Clearance of amyloid beta” (priority 2014, dated 2022).
Like-named read-outs stand apart in the source and are kept apart here.

How the values were obtained:
nicotinic receptors = settings: cited from earlier work
[1] = system: mice transgenic for a single, different Swedish APP mutation; settings: ten days at 2 mg/kg/day; cited from earlier work
neuroblastoma cells = settings: 300 nM; cited from earlier work
MCI patients = settings: cited from earlier work
[2] = system: Mice with lesions of the nucleus basalis magnocellularis (nBm); settings: cited from earlier work
[3] = system: mild-to-moderate AD patients; settings: cited from earlier work
[4] = system: adrenal chromaffin and human neuroblastoma cells; settings: 100 to 300 nM; Aβ1-40 10 μM; cited from earlier work
[5] = system: mild-to-moderate AD patients; experiment: two-year randomized trial of galantamine and placebo; assay type: in vivo, human; settings: 24 months
[6] = system: Primary rat cultured cortical neurons; settings: cited from earlier work
[7] = human patients; cited from earlier work
[8] = system: serum tumor necrosis factor (TNF); settings: cited from earlier work
α7 nicotinic receptors = target: T1, α7 nicotinic receptors (Rattus norvegicus, UniProt Q05941); settings: 1 μM; 1.5 mM choline; cited from earlier work
T1 construct: Primary cultured rat neurons can be depolarized by the application of 1.5 mM choline; endogenous in cells; host or cells: primary cultured rat neurons
T1 sequence (Q05941 23-502): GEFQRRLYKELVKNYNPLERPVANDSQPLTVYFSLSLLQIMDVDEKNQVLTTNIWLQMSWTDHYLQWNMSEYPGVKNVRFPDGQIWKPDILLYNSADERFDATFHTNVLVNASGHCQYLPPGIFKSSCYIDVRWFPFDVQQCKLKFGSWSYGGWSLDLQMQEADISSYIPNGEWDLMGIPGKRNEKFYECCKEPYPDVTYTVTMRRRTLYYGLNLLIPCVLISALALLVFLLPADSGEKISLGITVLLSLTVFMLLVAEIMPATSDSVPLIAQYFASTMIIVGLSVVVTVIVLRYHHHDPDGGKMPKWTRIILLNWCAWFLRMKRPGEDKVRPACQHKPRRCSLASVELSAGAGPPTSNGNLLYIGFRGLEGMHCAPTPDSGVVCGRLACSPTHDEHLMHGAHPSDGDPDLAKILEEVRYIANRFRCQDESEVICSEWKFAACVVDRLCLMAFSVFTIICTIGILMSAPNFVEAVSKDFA

APdE9 mice = settings: cited from earlier work; for insoluble Aβ in mouse brains: 2 months
CSF Aβ = settings: in vivo; cited from earlier work
[9] = system: mice transgenic for an anti-NGF (nerve growth factor) antibody; settings: 3.5 mg/kg/day, cited from earlier work
β-secretase = settings: 300 nM; cited from earlier work
Aβ1-40 = Aβ1-40 (Homo sapiens, UniProt P05067); settings: 500 nM; 50 μM Aβ1-40; cited from earlier work
Aβ1-40, sequence (P05067 672-711 limits assumed): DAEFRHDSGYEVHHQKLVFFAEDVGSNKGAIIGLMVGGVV

[10] = system: patients with Alzheimer's disease; settings: cited from earlier work
mild to moderate AD = settings: cited from earlier work; for reduction in loss on the ADAS-cog: mild patients
[11] = system: patients with Alzheimer's disease; experiment: combined solanezumab phase III studies by standard of care subgroup; assay type: in vivo, human
Description: The notion that the Alzheimer brain, and the brain which is developing, but has not yet reached the stage of classical Alzheimer's disease with dementia is impaired by both excess Aβ in the region of plaques, and subnormal Aβ concentrations in the ISF bathing healthy tissue away from plaques, has important treatment implications. The clinical outcome measures used to evaluate interventions designed to alter the course of AD depend on the function of intact, healthy synapses. Anti-amyloid agents would not be expected to target plaques and spare healthy tissue, but rather to further decrease ISF Aβ, which is already reduced to about half of normal in patients with AD or classical MCI. […] (J Alz Dis 2013; 33, S111-S120) 3D6, the […] of bapineuzemab, impaired neuronal viability, as have large doses of γ- and β-secretase inhibitors. […] The combined solanezumab phase III studies have been analyzed for solanezumab's performance in patients with and without cholinesterase inhibitor and memantine treatments (called standard of care—SOC). […] ChEls might improve the function of the normal cells, allowing the antibody to show a net benefit because of its binding of Aβ where it is toxic.

CSF Aβ42 = settings: single-dose study, dose-dependent; cited from earlier work

## CC12CC3CC(C)(C1)CC(N)(C3)C2 [Memantine]
Nicotinic receptors
  blockade of nicotinic receptors: potent blocker of nicotinic receptors

## COc1ccc2c3c1O[C@H]1C[C@@H](O)C=C[C@@]31CCN(C)C2 [galantamine, (4aS,6R,8aS)-5,6,9,10,11,12-hexahydro-3-methoxy-11-methyl-4aH-[1]benzofuro[3a,3,2-ef][2]benzazepin-6-ol]
[1]
  insoluble or soluble Aβ species: did not reduce insoluble or soluble Aβ species
  synaptophysin levels: significantly raise synaptophysin levels
Neuroblastoma cells
  release of Aβ1-40 and Aβ1-42: decreased
MCI patients; 24-month study period, all patients entered
  deaths: 34
MCI patients; subpopulation of two-year MCI study
  reduction of global atrophy (serial MRIs) versus placebo: 33%
MCI patients; within 30 days of stopping galantamine
  deaths: 14
[2]; given during training, optimal performance
  additional time remaining in the lighted compartment versus saline: about 125 seconds
[2]; passive avoidance
  best dose for memory enhancement: 3 mg/kg
[3]; 6 months
  MMSE change: 0.15
  MMSE difference versus placebo: 0.43
[3]; 12 months
  Disability Assessment in Dementia change: −4.55
  Disability Assessment in Dementia difference versus placebo: 1.95
[3]; 24 months, patients receiving memantine removed
  MMSE deterioration: 1.12 points
[3]; 24 months
  Disability Assessment in Dementia change: −8.16
  Disability Assessment in Dementia difference versus placebo: 2.65
  MMSE change: −1.41
  MMSE difference versus placebo: 0.73
[3]; in vivo
  mortality less than in placebo patients: 42%
[4]
  Aβ1-40-induced apoptosis: reduced Aβ1-40-induced apoptosis
[5]
  Disability Assessment in Dementia percent difference versus placebo: 24%
  MMSE percent difference versus placebo: 34%
[5]; patients receiving memantine removed
  reduction of MMSE deterioration versus placebo: 48%
[6]; 0.1 μM
  protection of neurons against Aβ plus glutamate: intermediate effect which is not statistically significant
[6]; 1.0 μM
  protection of neurons against Aβ plus glutamate: protects neurons against Aβ plus glutamate
[7]
  plasma half-life: about 7 hours
[8]; 1 mg/kg, administered prior to endotoxin
  serum tumor necrosis factor (TNF): significantly reduces serum tumor necrosis factor (TNF)
[8]; endotoxin
  dose at which survival is improved significantly: 4 mg/kg
α7 nicotinic receptors
  enhancement of the depolarization caused by choline: 20.6±4.2%
APdE9 mice; 1 mg/kg/day
  insoluble Aβ in mouse brains: significantly reduced insoluble (fibrillar) Aβ1-40
APdE9 mice; 5 mg/kg/day
  insoluble Aβ in mouse brains: reduced both Aβ1-40 and Aβ1-42
APdE9 mice; 1 or 5 mg/kg/day
  soluble Aβ species: Neither dose significantly affected soluble Aβ species
CSF Aβ
  effect on CSF Aβ: does not lower CSF Aβ
[9]; after 15 days
  intracellular Aβ deposits: decreased intracellular Aβ deposits
[9]
  ChAT activity: restored ChAT activity
β-secretase
  activity of β-secretase: decreased
Aβ1-40
  aggregation of Aβ1-40: reduce aggregation

## Solanezumab: antibody directed at the central portion of Aβ
[10]; AChEI + Memantine
  LS Mean Change (SE) from Baseline to Week 80 in ADAS-Cog14 Scores: 9.8 (0.8)
[10]; AChEI only
  LS Mean Change (SE) from Baseline to Week 80 in ADAS-Cog14 Scores: 6.8 (0.5)
[10]; Memantine only
  LS Mean Change (SE) from Baseline to Week 80 in ADAS-Cog14 Scores: 11.2 (1.9)
[10]; No SOC
  LS Mean Change (SE) from Baseline to Week 80 in ADAS-Cog14 Scores: 6.5 (1.3)
Mild to moderate AD; Expedition II
  reduction of functional decline (ADCS-ADL): 19%
  reduction in loss on the ADAS-cog: 20%
Mild to moderate AD; Expedition I
  reduction in loss on the ADAS-cog: 42%
Mild to moderate AD; mild subgroups combined
  decrease of activities of daily living loss: 17%
  slowing of cognitive loss: 34%
[11]; cholinesterase inhibitors, without memantine
  benefit on the ADAS-cog versus placebo: 2.1 points
[11]; patients not receiving cholinesterase inhibitors
  excess cognitive deterioration on the ADAS-cog versus placebo: 3.6 points
[11]; patients on memantine only
  excess cognitive deterioration on the ADAS-cog versus placebo: 4.1 points
CSF Aβ42
  rise in CSF Aβ42: up to 35%
